US9572760B2, “Uses of compounds and mixtures from Antrodia cinnamomea mycelia” (Simpson Biotech Co., Ltd., priority 2013, dated 2017)

Experiments:
[1] = tested on: hypertrophic scarring; test: Rabbit ear model of hypertrophic scarring: scar and epidermal thickness, histology; type: in vivo, New Zealand white rabbits; conditions: for mean epidermal thickness (ETI) / mean scar thickness (SEI): 1% w/v applied to wounds every day for 14 days; for mean epidermal thickness (ETI): control 5.08±0.44; for mean scar thickness (SEI): day 14, control 3.71±0.31; for histology: dermis layer of scars: treated for 14 day, 1% w/v
Protocol: The rabbit ear model of hypertrophic scarring was established. In brief, 12 New Zealand white rabbits, weighing 2.5 to 3.0 kg, were prepared for wounding under sterile conditions. Four 1 cm full thickness circular wounds were created down to the cartilage on the ventral side of each ear using a 1 cm punch biopsy. The perichondrial membrane was then dissected off the cartilage using a surgical blade. The test agents including compound B, C and ACM ethanol extract were applied to the wounds of the experimental group ([…] to each wound) every day in concentrations of 1% w/v for 14 days, while the control group received equal amounts of 1% w/v saline.

[2] = tested on: B16F10 cells; test: Melanin content in B16F10 cells after UV irradiation; type: cell-based, murine; conditions: 10 μM for 72 hrs prior to UV irradiation; UV alone 33.80±4.6% increase over non-UV cells (7.4±0.3 μg/mg protein)
Source text: The dermal fibroblast cell line CG1639 was obtained from the BCRC (Bioresource Collection and Research Center) and cultured in Dulbecco's modified Eagle media (DMEM, Gibco by Invitrogen) with 1% antibiotic antimycotic (Gibco by Invitrogen) and 15% fetal bovine serum (Gibco by Invitrogen). The fetal rat skin keratinocyte, FRSK cell line was obtained from the Japan HSRRB (Health Science Research Resources Bank) and cultured in Eagle's minimal essential media (MEM, Gibco by Invitrogen) supplemented with 10% fetal bovine serum (FBS) (Gibco by Invitrogen) and 1% antibiotic antimycotic (Gibco by Invitrogen). B16F10 cells, a murine melanoma cell line, were purchased from American Type Culture Collection (ATCC, Rockville, Md., USA) and was cultured in Eagle's Minimum Essential Medium (MEM; Sigma, St. Louis, Mo.) supplemented with 10% fetal bovine serum (FBS; HyClone Lab. Inc., Logan, Utah), 0.02% antibiotic-antimycotic liquid (penicillin, 10 000 U mL^−1; streptomycin, 10 000 μg mL^−1 and amphotericin B, 25 μg mL^−1; Invitrogen, Carlsbad, Calif.).
To investigate the induction of melanogenesis and the oxidative stress by direct UV irradiation, melanoma cells and keratocytes were irradiated with 8 J cm^−2 of UVA (FL15BLB, 352 nm, 15 W; Toshiba, Tokyo, Japan) and 10 mJ cm^−2 of UVB (G15T8E, 306 nm, 15 W; Sankyo Denki, Tokyo, Japan) in a HANKS' balanced salt solution (Sigma). The UV intensity was measured by using a Model UVX Digital Radiometer (UVP Inc., Upland, Calif.).
B16F10 and FRSK cells were exposed to Hepasim compounds A-D by two different concentrations (3 or 10 μM) for 72 hrs prior to UVA irradiation. DMEM was replaced with phosphate buffered saline (PBS) to avoid generation of medium-derived toxic photoproducts prior to UV irradiation. Cells were collected 24 hrs after UVA irradiation and assayed. For preparation of cell lysate, the harvested cells were pelleted by centrifugation and lysed in lysis buffer containing 50 mM Tris-HCl, 10 mM ethylene diaminetetraacetic acid (EDTA), 1% (v/v) Tri-ton X-100, phenylmethylsulfonyl fluoride (PMSF) (100 mg/ml) and pepstatin A (1 mg/ml) in DMSO and leupeptin (1 mg/ml) in H2O, pH 6.8. The cells were centrifuged at 10,000 rpm for 10 min and the total cell lysate was collected and stored at −80° C.
In order to measure the melanin contents, B16F10 cells were sonicated on ice and the mixture was centrifuged (25 000 g, 10 min, 4° C.). The supernatant was transferred, and pellets were dissolved in 0.85 N KOH at 60° C. for 20 min. Standard melanin (Sigma) was incubated in parallel. Spectrophotometric analysis of melanin content was then performed at an absorbance of 405 nm

| SMILES | mean epidermal thickness (ETI) [1] | mean scar thickness (SEI) [1] | histology: dermis layer of scars [1] | melanin production in UV-irradiated B16F10 cells [2] [%] |
| --- | --- | --- | --- | --- |
| CC(C)=CCOc1ccc(C2=C(CC(C)C)C(=O)NC2=O)cc1 [Compound B, 3-isobutyl-4-[4-(3-methyl-2-butenyloxy)phenyl]-1H-pyrrol-2,5-dione] | 2.23±0.31 | 1.93±0.51 | not significantly thickened | 29.40±4.3 |
| CC(C)=CCOc1ccc(C2=C(CC(C)C)C(=O)N(O)C2=O)cc1 [Compound C, 3-isobutyl-4-[4-(3-methyl-2-butenyloxy)phenyl]-1H-pyrrol-1-ol-2,5-dione] | 3.10±0.14 | 2.10±0.24 | not significantly thickened | 28.92±5.3 |
